In patent publication US20160271139A1, “METHOD FOR NON-TOXIC TREATMENT FOR DRUG WITHDRAWAL” (DEMERX, INC., priority 2013, published 2016):

System: healthy, drug-free male volunteers
Assay: Cold pressor test in healthy volunteers
Format: in vivo, human
Conditions: single oral 3-60 mg, vs placebo p>0.9 and p=0.17
Description: Analgesic effect was assessed based on duration of hand immersion in ice water and on visual analog scale (VAS) pain scores upon hand removal from the water bath.
Safety and tolerability of noribogaine were tested in the group of volunteers from Example 1. […] Safety evaluations included clinical monitoring, recording of adverse events (AEs), safety laboratory tests, vital signs, ECO telemetry from −2 h to 6 h after dosing, and 12-lead electrocardiograms (ECGs) up to 216 hours post-dosing.

## CC[C@H]1C[C@H]2C[C@H]3c4[nH]c5ccc(O)cc5c4CCN(C2)[C@@H]13 [noribogaine]
  Analgesic effect (duration of hand immersion, VAS pain scores): no analgesic effect
